How the values were obtained:
Format in all cases: biochemical
[1] = molecular target: T1, MMP-1 (Homo sapiens, UniProt P03956); assay: In vitro MMP-1 inhibition test; details: human MMP-1
T1 construct: purchased R&D Systems 901-MP
T1 sequence (P03956 100-469): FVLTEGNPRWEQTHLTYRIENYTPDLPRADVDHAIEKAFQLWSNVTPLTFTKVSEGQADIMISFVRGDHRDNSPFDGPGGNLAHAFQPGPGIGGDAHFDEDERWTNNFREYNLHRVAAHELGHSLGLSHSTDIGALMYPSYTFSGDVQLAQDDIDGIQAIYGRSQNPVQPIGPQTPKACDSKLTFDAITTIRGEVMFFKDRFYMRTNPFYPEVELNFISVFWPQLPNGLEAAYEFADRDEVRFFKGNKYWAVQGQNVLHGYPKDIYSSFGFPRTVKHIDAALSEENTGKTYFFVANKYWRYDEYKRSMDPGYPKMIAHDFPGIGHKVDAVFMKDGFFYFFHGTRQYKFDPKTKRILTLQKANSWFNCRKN
Description: (§1) The MMP-mediated amidolytic cleavage of a suitable peptide substrate leads to an increase in fluorescent light here too. The signal intensity of the fluorescent light is directly proportional to the enzyme activity. The active concentration of a test compound at which half the enzyme is inhibited (50% signal intensity of the fluorescent light) is reported as the IC50 value.
(§2) Recombinant MMP-1 (R&D Systems, 901-MP) is chemically activated in accordance with the manufacturer's instructions using APMA. 1 μl of the test compound to be analysed (as a solution in DMSO, suitable concentrations e.g. 1 nM to 30 μM) is pipetted into 24 μl of activated enzyme (final concentration e.g. 2 nM) in reaction buffer (50 mM Tris/HCl pH 7.5, 10 mM CaCl2, 150 mM NaCl, 0.05% Brij®-35) in a white 384-hole microtiter plate (MTP). The enzymatic reaction is started by adding the intramolecularly quenched Mca-Pro-Leu-Gly-Leu-Dpa(Dnp)-Ala-Arg-NH2 substrate (final concentration e.g. 10 μM; R&D Systems, ES-001), so as to result in a total test volume of 50 μl. The course of the MMP-1 reaction is measured by measuring the fluorescence intensity (excitation 320 nm, emission 410 nm) over a suitable period of time (e.g. over 120 min at a temperature of 32° C.).

[2] = molecular target: T2, MMP-3 (Homo sapiens, UniProt P08254); assay: In vitro MMP-3 inhibition test; details: human MMP-3
T2 construct: purchased R&D Systems 513-MP
Description: as §1
as §2, with “MMP-3” for “MMP-1”, “513-MP)” for “901-MP)”, “Mca-Arg-Pro-Lys-Pro-Val-Glu-Nval-Trp-Arg-Lys(Dnp)-NH2” for “Mca-Pro-Leu-Gly-Leu-Dpa(Dnp)-Ala-Arg-NH2”, “ES-002),” for “ES-001),”

[3] = molecular target: T3, MMP-13 (Homo sapiens, UniProt P45452); assay: In vitro MMP-13 inhibition test; details: human MMP-13
T3 construct: purchased R&D Systems 511-MP
Description: as §1
as §2, with “Recombinant MMP-13” for “Recombinant MMP-1”, “Systems, 511-MP)” for “Systems, 901-MP)”, “e.g. 0.1” for “e.g. 2”, “the MMP-13” for “the MMP-1”

[4] = molecular target: T4, MMP-16 (Homo sapiens, UniProt P51512); assay: In vitro MMP-16 inhibition test; details: human MMP-16
T4 construct: purchased R&D Systems 1785-MP
Description: as §1
Recombinant MMP-16 (R&D Systems, 1785-MP) is enzymatically activated in accordance with the manufacturer's instructions using recombinant furin (R&D Systems, 1503-SE). 1 μl of the test compound to be analysed (as a solution in DMSO, suitable concentrations e.g. 1 nM to 30 μM) is pipetted into 24 μl of activated enzyme (final concentration e.g. 1 nM) in reaction buffer (50 mM Tris/HCl pH 7.5, 10 mM CaCl2, 150 mM NaCl, 0.05% Brij®-35) in a white 384-hole microtiter plate (MTP). The enzymatic reaction is started by adding the intramolecularly quenched Mca-Lys-Pro-Leu-Gly-Leu-Dpa(Dnp)-Ala-Arg-NH2 substrate (final concentration e.g. 5 μM; R&D Systems, ES-010), so as to result in a total test volume of 50 μl. The course of the MMP-16 reaction is measured by measuring the fluorescence intensity (excitation 320 nm, emission 410 nm) over a suitable period of time (e.g. over 120 min at a temperature of 32° C.).

T2 sequence (P08254 100-477): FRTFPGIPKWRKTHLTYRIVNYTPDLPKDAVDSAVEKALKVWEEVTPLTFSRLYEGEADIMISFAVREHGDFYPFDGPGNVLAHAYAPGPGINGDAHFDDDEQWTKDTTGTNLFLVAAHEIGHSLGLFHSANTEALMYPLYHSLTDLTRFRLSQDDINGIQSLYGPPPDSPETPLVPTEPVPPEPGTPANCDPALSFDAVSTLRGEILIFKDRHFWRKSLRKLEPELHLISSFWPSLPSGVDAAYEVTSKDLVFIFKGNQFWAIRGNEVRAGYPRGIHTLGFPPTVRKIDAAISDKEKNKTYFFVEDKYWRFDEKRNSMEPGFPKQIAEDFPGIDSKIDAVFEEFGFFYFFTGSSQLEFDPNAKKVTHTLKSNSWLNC
T4 sequence (P51512 120-564 limits assumed): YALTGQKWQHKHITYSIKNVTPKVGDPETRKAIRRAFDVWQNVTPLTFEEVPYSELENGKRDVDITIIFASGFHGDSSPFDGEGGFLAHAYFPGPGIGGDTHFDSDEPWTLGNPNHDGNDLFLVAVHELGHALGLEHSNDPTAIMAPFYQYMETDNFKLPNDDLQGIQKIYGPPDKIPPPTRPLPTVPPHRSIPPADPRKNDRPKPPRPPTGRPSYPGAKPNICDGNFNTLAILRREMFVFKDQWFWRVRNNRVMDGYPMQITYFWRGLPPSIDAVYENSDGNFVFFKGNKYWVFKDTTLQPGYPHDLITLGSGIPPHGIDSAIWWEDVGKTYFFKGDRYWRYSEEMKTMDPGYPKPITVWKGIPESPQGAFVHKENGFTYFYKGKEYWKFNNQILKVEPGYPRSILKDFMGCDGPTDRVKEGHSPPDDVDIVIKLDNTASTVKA

Row | Compound | IC50 [1] | IC50 [2] | IC50 [3] | IC50 [4]
1 | O=C(CC(CCn1nnc2ccccc2c1=O)C(=O)O)c1coc2cc(OCCC3CCCC3)ccc12 (racemic) [Example 75, (+/−)-4-[6-(2-Cyclopentylethoxy)-1-benzofur-3-yl]-4-oxo-2-[2-(4-oxo-1,2,3-benzotriazin-3(4H)-yl)ethyl]butanoic acid] | > 40 µM | > 40 µM | 3.8 µM | > 40 µM
2 | CCCCCOc1ccc2c(C(=O)CC(CCn3nnc4ccccc4c3=O)C(=O)O)coc2c1 (racemic) [Example 89, (+/−)-4-Oxo-2-[2-(4-oxo-1,2,3-benzotriazin-3(4H)-yl)ethyl]-4-[6-(pentyloxy)-1-benzofur-3-yl]butanoic acid] | > 40 µM | > 40 µM | 0.67 µM | > 40 µM
3 | CCCCCCCOc1ccc2c(C(=O)CC(CCn3nnc4ccccc4c3=O)C(=O)O)coc2c1 (racemic) [Example 101, (+/−)-4-[6-(Heptyloxy)-1-benzofur-3-yl]-4-oxo-2-[2-(4-oxo-1,2,3-benzotriazin-3(4H)-yl)ethyl]butanoic acid] | > 40 µM | > 40 µM | 1.1 µM | > 40 µM
4 | O=C(CC(CCn1nnc2ccccc2c1=O)C(=O)O)c1cc2ccc(OCC3CC3)cc2s1 (racemic) [Example 111, (+/−)-4-[6-(Cyclopropylmethoxy)-1-benzothiophen-2-yl]-4-oxo-2-[2-(4-oxo-1,2,3-benzotriazin-3(4H)-yl)ethyl]butanoic acid] | > 40 µM | 9.7 µM | 1.9 µM | > 40 µM
5 | O=C(CC(CCn1nnc2ccccc2c1=O)C(=O)O)c1cc2ccc(OCCc3ccccc3)cc2s1 (racemic) [Example 114, (+/−)-4-Oxo-2-[2-(4-oxo-1,2,3-benzotriazin-3(4H)-yl)ethyl]-4-[6-(2-phenylethoxy)-1-benzothiophen-2-yl]butanoic acid] | > 40 µM | 3.2 µM | 0.25 µM | 28 µM
6 | CCCCCOc1ccc2cc(C(=O)CC(CCn3nnc4ccccc4c3=O)C(=O)O)sc2c1 (racemic) [Example 118, (+/−)-4-Oxo-2-[2-(4-oxo-1,2,3-benzotriazin-3(4H)-yl)ethyl]-4-[6-(pentyloxy)-1-benzothiophen-2-yl]butanoic acid] | > 40 µM | 16 µM | 1.1 µM | > 40 µM
7 | O=C(CC(CCn1nnc2ccccc2c1=O)C(=O)O)c1noc2cc(OCc3ccc(F)cc3)ccc12 (racemic) [Example 136, (+/−)-4-{6-[(4-Fluorobenzyl)oxy]-1,2-benzoxazol-3-yl}-4-oxo-2-[2-(4-oxo-1,2,3-benzotriazin-3(4H)-yl)ethyl]butanoic acid] | > 40 µM | 15 µM | 0.97 µM | 30 µM
8 | CCCCCOc1ccc2c(C(=O)CC(CCn3nnc4ccccc4c3=O)C(=O)O)noc2c1 (racemic) [Example 140, (+/−)-4-Oxo-2-[2-(4-oxo-1,2,3-benzotriazin-3(4H)-yl)ethyl]-4-[6-(pentyloxy)-1,2-benzoxazol-3-yl]butanoic acid] | > 40 µM | 14 µM | 0.33 µM | 24 µM
9 | O=C(CC(CCn1nnc2ccccc2c1=O)C(=O)O)c1noc2cc(OCCc3ccccc3)ccc12 (racemic) [Example 144, (+/−)-4-Oxo-2-[2-(4-oxo-1,2,3-benzotriazin-3(4H)-yl)ethyl]-4-[6-(2-phenylethoxy)-1,2-benzoxazol-3-yl]butanoic acid] | > 40 µM | 18 µM | 1.6 µM | 15 µM

Results, then the molecule that gave them:

Row | IC50 [1] | IC50 [2] | IC50 [3] | IC50 [4] | Compound
10 | > 40 µM | 8.9 µM | 1.5 µM | 25 µM | O=C(CC(CCn1nnc2ccccc2c1=O)C(=O)O)c1noc2cc(OCc3ccccc3)ccc12 (racemic) [Example 145, (+/−)-4-[6-(Benzyloxy)-1,2-benzoxazol-3-yl]-4-oxo-2-[2-(4-oxo-1,2,3-benzotriazin-3(4H)-yl)ethyl]butanoic acid]
11 | > 40 µM | 9.1 µM | 0.5 µM | > 40 µM | O=C(CC(CCn1nnc2ccccc2c1=O)C(=O)O)c1noc2cc(OCc3cccnc3)ccc12 (racemic) [Example 148, (+/−)-4-Oxo-2-[2-(4-oxo-1,2,3-benzotriazin-3(4H)-yl)ethyl]-4-[6-(pyridin-3-ylmethoxy)-1,2-benzoxazol-3-yl]butanoic acid]
12 | > 40 µM | 33 µM | 2.4 µM | 11 µM | O=C(CC(CCn1nnc2ccccc2c1=O)C(=O)O)c1noc2cc(OCC3CC3)ccc12 (racemic) [Example 150, (+/−)-4-[6-(Cyclopropylmethoxy)-1,2-benzoxazol-3-yl]-4-oxo-2-[2-(4-oxo-1,2,3-benzotriazin-3(4H)-yl)ethyl]butanoic acid]
13 | > 40 µM | 12 µM | 2.8 µM | > 40 µM | O=C(CC(CCn1nnc2ccccc2c1=O)C(=O)O)c1noc2cc(OCC3CCCCC3)ccc12 (racemic) [Example 153, (+/−)-4-[6-(Cyclohexylmethoxy)-1,2-benzoxazol-3-yl]-4-oxo-2-[2-(4-oxo-1,2,3-benzotriazin-3(4H)-yl)ethyl]butanoic acid]
14 | > 40 µM | 10 µM | 2.3 µM | 13 µM | O=C(CC(CCn1nnc2ccc(C(F)(F)F)cc2c1=O)C(=O)O)c1noc2cc(OCc3ccccc3)ccc12 (racemic) [Example 154, (+/−)-4-[6-(Benzyloxy)-1,2-benzoxazol-3-yl]-4-oxo-2-{2-[4-oxo-6-(trifluoromethyl)-1,2,3-benzotriazin-3(4H)-yl]ethyl}butanoic acid]
15 | > 40 µM | 19 µM | 2.7 µM | 30 µM | O=C(CC(CCn1nnc2ccc(C(F)(F)F)cc2c1=O)C(=O)O)c1noc2cc(OCC3CCOCC3)ccc12 (racemic) [Example 155, (+/−)-4-Oxo-2-{2-[4-oxo-6-(trifluoromethyl)-1,2,3-benzotriazin-3(4H)-yl]ethyl}-4-[6-(tetrahydro-2H-pyran-4-ylmethoxy)-1,2-benzoxazol-3-yl]butanoic acid]
